From US10709745B2, “Tropic cell based virotherapy for the treatment of cancer” (priority 2013, dated 2020)

What was measured:
[1] = system: GBM43; test: TMZ IC50 with simultaneous XRT; assay type: cell-based; conditions: Homo sapiens; treated with XRT (2 Gy) simultaneously
Procedure: For all studies, the cells and mice received XRT in accordance with the University of Chicago's radiation safety guidelines and protocols. All cells received a single dose of 2 Gy XRT. For animal studies, 10 Gy fractioned dose radiotherapy (2 Gy for 5 consecutive days) was used. The animals were irradiated with a lead cover shielding their entire body, with only their heads exposed. […] For in vivo studies, the mice received 2.5, 5, 10, or 30 mg/kg TMZ via intraperitoneal injection.

[2] = system: GBM43 glioma xenografts; test: Intracranial GBM43 xenograft: TMZ, XRT and CRAd-S-pk7-loaded NSCs; assay type: in vivo, nude mice
Procedure: FIGS. 43A, 43B and 43C illustrate the in vivo efficacy of CRAd-Survivin-pk7 (CRAd-S-pk7)-loaded NSCs and XRT-TMZ treatment against human-derived glioma xenografts according to one embodiment. Intracranial GBM43 (3.5×10^5 cells per animal) was established, and the animals were treated for 5 consecutive days beginning on day 6 after tumor cell implantation. (FIG. 43A): Survival of animals treated with escalating doses of intraperitoneally administered TMZ (0, 5, 10, or 30 mg/kg). (FIG. 43B): Survival of animals treated with XRT (2 Gy) or a combination of XRT (2 Gy) and TMZ (2.5, 5, 10, or 30 mg/kg). (FIG. 43C): Survival of animals treated with the optimized dose of 2 Gy XRT and 5 mg/kg TMZ in addition to 5×10^5 or 3×10^6 NSCs loaded with 50 infectious units of CRAd-S-pk7. […] Abbreviations: ND, not determined; ns, no significance; NSC, neural stem cell; TMZ, temozolomide; XRT, radiation therapy.
FIGS. 45A and 45B illustrate the scheduling of CRAd-Survivin-pk7 (CRAd-S-pk7)-loaded NSC administration in vivo according to one embodiment. (FIG. 45A): Survival of animals treated with both therapeutic scheduling protocols. […] For each treatment group, five images were taken using the […]20 objective, and the number of positive cells was quantified per field of view (right). *, p<0.05; **, p<0.01; ***, p<0.001. […]

Which IC50 [1] does the source give for `Cn1nnc2c(C(N)=O)ncn2c1=O` [TMZ, temozolomide] here?
The IC50 was 37 µM.

What about the “increase in survival vs XRT-treated animals” value ([2]; TMZ 5 mg/kg plus XRT 2 Gy ×5) of the same compound?
Its value is 7 days.

What about the median survival ([2]; TMZ 5 mg/kg plus XRT 2 Gy ×5 (FIG. 43B)) of the same compound?
The median survival was 31 days.
